Consider two compounds from patent US20100041594A1, “Use of Aplidine for the Treatment of Pancreatic Cancer” (Pharma Mar, S.A., priority 2001, published 2010).

The test system of one data set is NP9 peritoneal implants. In words: NP9 peritoneal metastases after orthotopic implantation. The class given is in vivo, Nu/Nu Swiss mice. The source says:
(§1) Aplidine is a new cyclic depsipeptide with anticancer activity in vitro and in vivo in different tumour types, but it has not been tested in pancreatic carcinoma. Nevertheless, this pathology has a poor prognosis because of difficult early diagnosis, aggressiveness and lack of effective systemic therapies. Most patients die of metastases present at diagnosis. We compared the antitumour effect of aplidine against 2 human pancreatic carcinomas, NP9 and NP18, using orthotopic (ORP) and subcutaneous (SC) tumour implantation models. […] METHODS: Groups of ten male Nu/Nu Swiss mice (4 wk old) were treated with vehicle or aplidine. To evaluate primary tumour response, ip aplidine was given, starting 2 weeks (wk) after implantation, at 0.8 mg/kg q4d for 4 wk (NP9) or at 0.8 mg/kg q4d for 6 wk, ceasing treatment the 4th and 5th wk (NP18). To evaluate the response of NP9 metastasis aplidine regime was 0.8 mg/kg q4d per 3 doses, starting 4 weeks after implantation. We measured final tumour weight, macroscopic viability (viable cortex/total tumour weight), microscopic necrosis, apoptotic induction and signal transduction. […] This effect was due to apoptotic induction leading to a reduced number of viable cells in both tumours. Apoptotic induction on NP18 was associated with PARP cleavage and reduced AKT activation, only in ORT-treated tumours. aplidine induced a decrease in cyclins B1 and D1 and FAK expression only in ORT NP9-treated tumours. […] CONCLUSIONS: The use of an ORT implantation model permitted the observation of the antitumour effect of aplidine on primary tumours and metastases of human pancreatic carcinomas. aplidine altered apoptotic and proliferative pathways, which could explain its antitumour effect.
(§2) We used two human pancreatic carcinomas (NP18 and NP9) perpetuated as orthotopic xenografts in nude mice. NP9 produce an extensive peritoneal dissemination 4-5 weeks after implantation (metastatic). We implanted these tumours in four week-old male Nu/Nu Swiss mice (Charles River), housed in autoclaved cages and provided y-ray sterilized bedding and food. They were anesthetized with 2,2,2-tribromoethanol (Sigma-Aldrich) and 10 mg fragments of each tumour from previous passages were implanted orthotopically (ORT, at the pancreas). Xenografted animals were randomly distributed in control (n=10) and experimental (n=10) groups just before treatment. We excluded animals bearing non palpable tumours after ORT implantation, or with tumour volumes lower than 0.13 cm^3 (0.5 cm in diameter). Treatment schedule depended on tumour growth rate. In the fast growing NP9 tumour, two schedules of treatment were used. In one, treatment started two weeks after tumour implantation, before peritoneal dissemination had occurred. Each animal in the experimental group received ip administrations of aplidine at a dose of 0.8 mg/Kg q4d per four weeks. In the other schedule, treatment started four weeks after tumour implantation, once peritoneal dissemination had occurred, with a regime of aplidine of 0.8 mg/Kg q4d per three doses. The existence of macroscopically visible implants was confirmed one day before the treatment begun, by the sacrifice of one extra animal. In the NP18 tumour, treatment started 4 weeks after tumour implantation and the schedule of aplidine was 0.8 mg/Kg q4d ip for 4 weeks, ceasing treatment for two weeks, and continuing with 0.8 mg/Kg q4d ip for two additional weeks. The animals in the corresponding control groups received i.p. administrations of vehicle following the same schedule. After implantation, and during treatment, mice were inspected twice a week and weighted weekly to monitor for compound toxicity.
(§3) At the end of treatment, animals were euthanized and dissemination recorded. Primary tumours were excised and weighted in all groups. Tumor aliquots were frozen down in liquid nitrogen or fixed in formaline. We counted the number of peritoneal implants in each animal and took samples for histological and molecular analysis. […]

For data set [1], the system named is NP18 human pancreatic carcinoma. In words: NP18 human pancreatic carcinoma xenograft, primary tumour. The format is in vivo, Nu/Nu Swiss mice. The following applies: for Total tumour weight (g): 0.8 mg/kg q4d ip.
From the text: as §1, §2, §3
In general terms: In xenograft studies the graft and the host belong to different species.

In a further data set the test system is prostate tumour. The following applies: 1.25 mg/kg; cited from earlier work.
The subject of data set [2] is NP9 human pancreatic carcinoma. In words: NP9 human pancreatic carcinoma xenograft, primary tumour. The class given is in vivo, Nu/Nu Swiss mice. The following applies: for Solid tumour weight (g) / Total tumour weight (g): 0.8 mg/kg q4d ip.
From the text: as §1, §2, §3

Another data set concerns gastric tumours. The following applies: 1.25 mg/kg; cited from earlier work.
For data set [3], the system named is P388 leukaemia and B 16 melanoma. The following applies: mouse, in vivo; cited from earlier work.
Data set [4] concerns CT-1, CT-2 and HT-29 cell lines. The following applies: CT-1, CT-2, HT-29; cited from earlier work.
Another data set relates to pancreatic tumour. The following applies: 4 patients with pancreatic tumour, phase I; cited from earlier work.
Data set [5] can be described thus: Stability of aplidine solution and lyophilised dosage form. The class given is physicochemical. The procedure: In a currently preferred embodiment freeze-drying was performed from a […] solution of aplidine in 40% (v/v) tert-butanol in Water for Injection (Wfl) containing 25 mg/mL D-mannitol as bulking agent. […] Both reconstituted product and dilutions (up to 1:100 v/v) of the reconstituted product with normal saline appeared to be stable for at least 24 hours after preparation.

Another data set concerns lewis lung carcinomas. The following applies: cited from earlier work.
In a further data set the target is T1, ornithine decarboxylase (Homo sapiens, UniProt P11926).
T1 construct: endogenous in cells; host or cells: CT-1, CT-2 and HT-29 colon cell lines
T1 sequence (P11926 1-461): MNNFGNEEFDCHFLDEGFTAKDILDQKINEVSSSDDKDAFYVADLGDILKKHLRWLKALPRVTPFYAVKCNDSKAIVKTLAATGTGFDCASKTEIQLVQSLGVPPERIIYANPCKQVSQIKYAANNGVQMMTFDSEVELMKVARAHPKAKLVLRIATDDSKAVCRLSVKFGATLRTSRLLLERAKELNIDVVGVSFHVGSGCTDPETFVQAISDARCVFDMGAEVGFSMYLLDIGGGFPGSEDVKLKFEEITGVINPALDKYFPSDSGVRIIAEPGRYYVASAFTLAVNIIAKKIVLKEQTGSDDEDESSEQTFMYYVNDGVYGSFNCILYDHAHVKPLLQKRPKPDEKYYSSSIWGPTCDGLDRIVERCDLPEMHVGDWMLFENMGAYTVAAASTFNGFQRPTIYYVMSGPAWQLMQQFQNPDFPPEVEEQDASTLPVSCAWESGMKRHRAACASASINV
The following applies: all three cell lines; cited from earlier work.

Another data set has as its system human cancer xenografts. The following applies: cited from earlier work.
For data set [6], the system named is Non-small cell lung cancer, breast cancer and melanoma cell lines. The following applies: continuous exposure; cited from earlier work.
A further data set relates to MDA-MB231. The following applies: aplidine 50 nmol/L; cited from earlier work.
The subject of a further data set is MCF-7. The following applies: aplidine 50 nmol/L; cited from earlier work.

Molecules are shown by their SMILES. Marks after values point to notes of the source that are not given here. Starred links: 1 amine or outer side, 2 acyl side, 3 side chain; linkers in the order of their positions; H or OH if unused. Positions of bridges follow the written chain, without caps; N, C: chain ends. Non-standard residues stand in square brackets, D forms with d. Residues, ends and D or L forms follow the SMILES beside them. *: point of attachment. X1 = CC[C@H](C)[C@@H](N[*:1])[C@@H](O)CC(=O)O[C@H](C(=O)[C@H](C)C(=O)[*:2])C(C)C; NMeY = CN[C@@H](Cc1ccc(O)cc1)C(=O)O; dNMeL = CN[C@H](CC(C)C)C(=O)O; Pyruvoyl = CC(=O)C(=O)*

In general, T/C refers to the result in the treated group divided by that in the control group, in per cent. In general, inhibition of growth refers to how much of the control response was suppressed. As for `CC[C@H](C)[C@H]1NC(=O)[C@@H](NC(=O)[C@@H](CC(C)C)N(C)C(=O)[C@@H]2CCCN2C(=O)C(C)=O)[C@@H](C)OC(=O)[C@H](Cc2ccc(OC)cc2)N(C)C(=O)[C@@H]2CCCN2C(=O)[C@H](CC(C)C)NC(=O)[C@@H](C)C(=O)[C@H](C(C)C)OC(=O)C[C@@H]1O` [aplidine] (Pyruvoyl-P[dNMeL]T[X1]LP[NMeY](Me); ester 3-C), the “apoptotic nuclei per treated implant (Hoescht)” value with NP9 peritoneal implants (established metastases) was 3-6. For the same compound, in the data set on NP9 peritoneal implants (mouse, in vivo), the “Caspase-3 activation and PARP cleavage in metastases” value was “No activation of Caspase-3 nor PARP cleavage”; the “necrosis in peritoneal implants (H&E)” value was “did not contain necrotic areas”. In addition, in the data set on NP9 peritoneal implants (treatment initiated before dissemination, 0.8 mg/Kg q4d four weeks), the peritoneal implants result is reported as “no peritoneal implants were observed in any animal”. In addition, in the data set with NP9 peritoneal implants (treatment started once metastases macroscopically evident), the “diameter of peritoneal implants” value is recorded as “less than 1 mm”. In addition, the “number of peritoneal implants per animal” value with NP9 peritoneal implants (treatment started once metastases macroscopically evident, 0.8 mg/Kg q4d three doses) was 7-20. Also, the “ERK activation in metastases” value with NP9 peritoneal implants (vs control metastases) is listed as “lower ERK activation”. Besides, the “size or macroscopic appearance of primary tumour” value in [1] (NP18) is recorded as “did not significantly change”. Besides, in data set [1] (NP18, ORT), the “AKT activation (Western blot)” value is “Decrease AKT activation”; the “PARP cleavage (Western blot)” value is on record as “PARP cleavage”; the “caspases 3, 7 and 8 (Western blot)” value was “activation of caspases 3, 7 and 8”; the “Total tumour weight (g)” value is on record as 9.34 ± 1.3^d g. Also, the “microscopic necrosis (H&E)” value in data set [1] (NP18, ORT treated vs ORT control) is recorded as “significantly higher level of necrosis”. Besides, in data set [1] (NP18, ORT, viable tissue), the “apoptosis (Hoescht nuclear staining)” value is reported as “significantly increased apoptosis”. Moreover, in data set [1] (NP18, SC), the “AKT, caspases 3, 7, 8 and PARP regulation (Western blot)” value was “did not alter the regulation of any of these proteins”; the “Total tumour weight (g)” value is on record as 15.5 ± 5.3^c g. Also, in data set [1] (NP18, any site), the “ERK activation (Western blot)” value is “No differences in ERK activation” and the “difference in total or solid tumour weight vs control” value was “no significant differences”. Also, the T/C with prostate tumour is 25%. For the same compound, the “active forms of caspases 3, 7 or 8 (Western blot)” value in data set [2] (NP9) is “No active forms of caspases 3, 7 or 8 were detected”. In addition, in data set [2] (NP9, ORT), the “FAK expression (Western blot)” value was “downregulation of FAK”; the “cyclin B1 and cyclin D1 expression (Western blot)” value is “decreased expression of cyclin B1 and cyclin D1”; the “macroscopic appearance, invasion by primary tumour” value is reported as “did not invade other organs of the peritoneum”; the “Solid tumour weight (g)” value is given as 3.04 ± 1.04^f g. In addition, in data set [2] (NP9, ORT), the “Total tumour weight (g)” value is on record as 3.72 ± 1.09^b g. Further, the “foci of non-viable/necrotic cells, share of each tumour” value in data set [2] (NP9, ORT treated) is on record as 75-100%. In addition, in data set [2] (NP9, ORT, viable tissue), the Ki67 result was “downregulation” and the “apoptosis (Hoescht nuclear staining)” value is listed as “significantly increased apoptosis”. Further, in [2] (NP9, SC), the “cyclin B1 and cyclin D1 levels (Western blot)” value is “no differences in cyclin B1 or cyclin D1 levels”; the “Solid tumour weight (g)” value was 0.87 ± 0.44^e g; the “Total tumour weight (g)” value is 1.56 ± 0.8^a g. The “difference in total or solid tumour weight vs control” value in data set [2] (NP9, any site) is given as “no significant differences”. Further, the “ERK activation (Western blot)” value in data set [2] (NP9, both tumour sites) is reported as “ERK activation was unaltered”. In the data set with gastric tumours, the T/C is on record as 14%. In addition, in [3], the “activity against implanted tumours” value was “active” and the optimal dose is 160 micro/kg. Also, the cytotoxic activity entry in [4] was “dose-dependent cytotoxic activity”. Moreover, in the data set with pancreatic tumour, the “tumour response of patients” value was “did not respond”. The “degradation under stress testing” value in data set [5] is “substantial degradation”. In addition, the “activity in SC implanted lewis lung carcinomas” value with lewis lung carcinomas is recorded as “active”. For the same compound, the ornithine decarboxylase activity entry on ornithine decarboxylase was “decreased ornithine decarboxylase activity”. In the data set with human cancer xenografts (2.1 mg/kg), the “treated/control (T/C) tumour ratio” value is 9%. For the same compound, the maximum tolerated dose in the data set with human cancer xenografts (mice bearing human cancer xenografts) was 2.1 mg/kg. Moreover, the “concentration to which cell lines were sensitive” value in data set [6] is recorded as “>= 0.001 micromol/L”. The inhibition of growth in the data set on MDA-MB231 was 17%. For the same compound, in the data set with MCF-7, the inhibition of growth was 47%.

For the compound `CC[C@H](C)[C@H]1NC(=O)[C@@H](NC(=O)[C@@H](CC(C)C)N(C)C(=O)[C@@H]2CCCN2C(=O)C(C)O)[C@@H](C)OC(=O)[C@H](Cc2ccc(OC)cc2)N(C)C(=O)[C@@H]2CCCN2C(=O)[C@H](CC(C)C)NC(=O)[C@@H](C)C(=O)[C@H](C(C)C)OC(=O)C[C@@H]1O` (some centres unmarked) [didemnin B, reference compound], the “activity in SC implanted lewis lung carcinomas” value in the data set on lewis lung carcinomas is on record as “Unlike didemnin B, aplidine was active”.
